# Measurements: patent US4291164A, “Cephalosporin analogs and methods for production thereof” (Kyowa Hakko Kogyo Co., Ltd., priority 1978, dated 1981)
# Structures can show the parent of a compound that is named as a salt. Where two headings read alike, the source gives them in different places.
# Legend:
# Assay type in all cases: cell-based
# Proteus rettgeri KY4289 = assay: Antibacterial activity, Heart Infusion Agar Dilution Method, Proteus rettgeri KY4289; details: for MIC: Providencia rettgeri, pH 7.2, read-out: Minimum Inhibitory Concentration; for Minimum Inhibitory Concentration: pH 7.2
# Procedure: (§1) The antibacterial activity of the compounds obtained in the above Examples 24, 26, 28, 30, 32, 34, 36, 38, 40 and 41 are determined by Heart Infusion Agar Dilution Method (pH 7.2). Cefazolin is used as a reference.
# [1] = tested on: Pseudomonas aeruginosa 145; assay: Antibacterial activity, Heart Infusion Agar Dilution Method, Pseudomonas aeruginosa 145; details: for MIC: Pseudomonas aeruginosa, 145, pH 7.2, read-out: Minimum Inhibitory Concentration
# Procedure: as §1
# Escherichia coli NIHJC2 = assay: Antibacterial activity, Heart Infusion Agar Dilution Method, Escherichia coli NIHJC2
# Procedure: as §1
# [2] = tested on: Klebsiella pneumoniae 8045; assay: Antibacterial activity, Heart Infusion Agar Dilution Method, Klebsiella pneumoniae 8045; details: for MIC: pH 7.2, read-out: Minimum Inhibitory Concentration; for Minimum Inhibitory Concentration: pH 7.2
# Procedure: as §1
# Proteus morganii KY4298 = assay: Antibacterial activity, Heart Infusion Agar Dilution Method, Proteus morganii KY4298; details: for MIC: Morganella morganii, pH 7.2, read-out: Minimum Inhibitory Concentration; for Minimum Inhibitory Concentration: pH 7.2
# Procedure: as §1
# [3] = tested on: Staphylococcus epidermidis; assay: Antibacterial activity, Heart Infusion Agar Dilution Method, Staphylococcus epidermidis; details: for MIC: pH 7.2, read-out: Minimum Inhibitory Concentration
# Procedure: as §1
# [4] = tested on: Staphylococcus aureus 209p; assay: Antibacterial activity, Heart Infusion Agar Dilution Method, Staphylococcus aureus 209p; details: for MIC: pH 7.2, read-out: Minimum Inhibitory Concentration
# Procedure: as §1
# [5] = tested on: Klebsiella pneumoniae Y60; assay: Antibacterial activity, Heart Infusion Agar Dilution Method, Klebsiella pneumoniae Y60; details: for MIC: pH 7.2, read-out: Minimum Inhibitory Concentration
# [6] = tested on: Staphylococcus aureus Smith; assay: Antibacterial activity, Heart Infusion Agar Dilution Method, Staphylococcus aureus Smith; details: for MIC: pH 7.2, read-out: Minimum Inhibitory Concentration
# Procedure: as §1
# Proteus mirabilis 1287 = assay: Antibacterial activity, Heart Infusion Agar Dilution Method, Proteus mirabilis 1287; details: for MIC: pH 7.2, read-out: Minimum Inhibitory Concentration; for Minimum Inhibitory Concentration: pH 7.2
# Procedure: as §1
# Serratia marcescens T55 = assay: Antibacterial activity, Heart Infusion Agar Dilution Method, Serratia marcescens T55; details: for MIC: pH 7.2, read-out: Minimum Inhibitory Concentration; for Minimum Inhibitory Concentration: pH 7.2
# Proteus vulgaris 6897 = assay: Antibacterial activity, Heart Infusion Agar Dilution Method, Proteus vulgaris 6897; details: for MIC: pH 7.2, read-out: Minimum Inhibitory Concentration; for Minimum Inhibitory Concentration: pH 7.2
# Procedure: as §1
# Serratia marcescens T26 = assay: Antibacterial activity, Heart Infusion Agar Dilution Method, Serratia marcescens T26; details: for MIC: pH 7.2, read-out: Minimum Inhibitory Concentration
# Pseudomonas putida F264 = assay: Antibacterial activity, Heart Infusion Agar Dilution Method, Pseudomonas putida F264; details: for MIC: pH 7.2, read-out: Minimum Inhibitory Concentration
# Escherichia coli Juhl = assay: Antibacterial activity, Heart Infusion Agar Dilution Method, Escherichia coli Juhl
# Microorganism = assay: Antimicrobial activity as shown in table (overall statement); details: as shown in table below
# Procedure: as §1
# [7] = Escherichia coli NIHJC2, Heart Infusion Agar Dilution, pH 7.2, read-out: Minimum Inhibitory Concentration
# [8] = Escherichia coli Juhl, Heart Infusion Agar Dilution, pH 7.2, read-out: Minimum Inhibitory Concentration
# [9] = Escherichia coli NIHJC2, Heart Infusion Agar Dilution, pH 7.2
Compound,MIC (Proteus rettgeri KY4289) [µg/mL],MIC [1] [µg/mL],MIC (Escherichia coli NIHJC2; [7]) [µg/mL],MIC [2] [µg/mL],MIC (Proteus morganii KY4298) [µg/mL],MIC [3] [µg/mL],MIC [4] [µg/mL],MIC [5] [µg/mL],MIC [6] [µg/mL],MIC (Proteus mirabilis 1287) [µg/mL],MIC (Serratia marcescens T55) [µg/mL],MIC (Proteus vulgaris 6897) [µg/mL],MIC (Serratia marcescens T26) [µg/mL],MIC (Pseudomonas putida F264) [µg/mL],MIC (Escherichia coli Juhl; [8]) [µg/mL],other results
"N[C@@H](C(=O)N[C@H]1C(=O)N2C(C(=O)O)=CCC[C@H]12)c1ccccc1 (racemic) [Example 26, (±)-cis-7-[(R)-2-phenyl-2-aminoacetamido]-1-azabicyclo-[4,2,0]oct-2-en-8-on-2-carboxylic acid]",50,> 100,12.5,3.12,100,6.25,0.4,12.5,12.5,25,25,25,> 100,> 100,12.5,
"CON=C(C(=O)NC1C(=O)N2C(C(=O)O)=CC(C)CC12)c1csc(N)n1 (racemic) [Example 36, (±)-cis-7β-[2-(2-amino-4-thiazolyl)-2-methoxyiminoacetamido]-4β-methyl-2-carboxy-1-azabicyclo[4,2,0]oct-2-en-8-one]",,,,,,,,,,,,,,,,"Minimum Inhibitory Concentration (Proteus rettgeri KY4289): 0.4 µg/mL; Minimum Inhibitory Concentration ([1]; Pseudomonas aeruginosa 145, Heart Infusion Agar Dilution, pH 7.2): > 100 µg/mL; Minimum Inhibitory Concentration (Escherichia coli NIHJC2; [9]): 0.2 µg/mL; Minimum Inhibitory Concentration [2]: 0.2 µg/mL; Minimum Inhibitory Concentration (Proteus morganii KY4298): 0.78 µg/mL; Minimum Inhibitory Concentration ([3]; pH 7.2): > 100 µg/mL; Minimum Inhibitory Concentration ([4]; pH 7.2): 50 µg/mL; Minimum Inhibitory Concentration ([6]; pH 7.2): 100 µg/mL; Minimum Inhibitory Concentration (Proteus mirabilis 1287): 0.78 µg/mL; Minimum Inhibitory Concentration (Serratia marcescens T55): 3.12 µg/mL; Minimum Inhibitory Concentration (Proteus vulgaris 6897): 0.78 µg/mL; Minimum Inhibitory Concentration (Serratia marcescens T26; pH 7.2): 6.25 µg/mL; Minimum Inhibitory Concentration (Pseudomonas putida F264; pH 7.2): 0.4 µg/mL"
"CO/N=C(/C(=O)N[C@@H]1C(=O)N2C(C(=O)O)=CCC[C@H]12)c1csc(N)n1 (relative stereo) [Example 24, (±)-cis-7-[2-(2-amino-4-thiazolyl)-2-anti-methoxyimino-acetamido]-1-azabicyclo[4,2,0]oct-2-en-8-one-2-carboxylic acid]",0.1,> 100,0.78,0.2,0.78,100,100,1.56,> 100,0.78,1.56,0.4,3.12,0.78,1.56,
"CC(=O)O[C@@H]1C=C(C(=O)O)N2C(=O)[C@@H](NC(=O)Cc3cccs3)[C@H]2C1 (relative stereo) [Example 41, (±)-cis-7β-(2-thienylacetamido)4α-acetoxy-1-azabicyclo[4,2,0]oct-2-en-8-on-2-carboxylic acid]",> 100,> 100,100,> 100,> 100,12.5,3.12,25,25,> 100,> 100,> 100,> 100,> 100,100,
"N[C@@H](C(=O)NC1C(=O)N2C(C(=O)O)=CCCC12)c1ccccc1 (single isomer, unassigned) [Example 26 A isomer]",,,,,,,,,,,,,,,,"Minimum Inhibitory Concentration (Proteus rettgeri KY4289): 6.25 µg/mL; Minimum Inhibitory Concentration (Escherichia coli NIHJC2; [9]): 50 µg/mL; Minimum Inhibitory Concentration [2]: 50 µg/mL; Minimum Inhibitory Concentration (Proteus morganii KY4298): 50 µg/mL; Minimum Inhibitory Concentration ([5]; pH 7.2): 50 µg/mL; Minimum Inhibitory Concentration (Proteus mirabilis 1287): 25 µg/mL; Minimum Inhibitory Concentration (Serratia marcescens T55): 100 µg/mL; Minimum Inhibitory Concentration (Proteus vulgaris 6897): 25 µg/mL; Minimum Inhibitory Concentration (Escherichia coli Juhl; Escherichia coli Juhl, Heart Infusion Agar Dilution, pH 7.2): 100 µg/mL"
"CCN1CCN(C(=O)NC(C(=O)NC2C(=O)N3C(C(=O)O)=CCCC23)c2ccccc2)C(=O)C1=O (stereo in doubt) [Example 28, (±)-cis-7-[(R)-2-phenyl-2-(4-ethyl-2,3-dioxo-1-piperazinylcarbonylamino)acetamido]-1-azabicyclo[4,2,0]oct-2-en-8-one-2-carboxylic acid]",6.25,100,1.56,< 0.05,3.12,3.12,0.78,25,3.12,1.56,3.12,< 0.05,25,6.25,1.56,antimicrobial activity (in words) (Microorganism): strong antimicrobial activity
"Cc1nnc(SCC2=C(C(=O)O)N3C(=O)[C@@H](NC(=O)Cn4cnnn4)[C@H]3SC2)s1 [Cefazolin, reference compound]",25,> 100,,0.78,> 100,0.78,< 0.05,3.12,0.4,12.5,50,12.5,> 100,> 100,,"MIC (Escherichia coli NIHJC2; Escherichia coli, NIHJC2, pH 7.2, read-out: Minimum Inhibitory Concentration): 1.56 µg/mL; MIC (Escherichia coli Juhl; Escherichia coli, pH 7.2, read-out: Minimum Inhibitory Concentration): 1.56 µg/mL"
N[C@@H](C(=O)N[C@@H]1C(=O)N2C(C(=O)O)=CCC[C@H]12)c1ccccc1 [Example 26 B isomer],12.5,,3.12,0.78,50,3.12,0.4,3.12,6.25,12.5,12.5,50,,100,3.12,antimicrobial activity (in words) (Microorganism): stronger antimicrobial activity than the more polar isomer

# More lines, main results first:
MIC (Proteus rettgeri KY4289) [µg/mL],MIC [1] [µg/mL],MIC (Escherichia coli NIHJC2; [7]) [µg/mL],MIC [2] [µg/mL],MIC (Proteus morganii KY4298) [µg/mL],MIC [3] [µg/mL],MIC [4] [µg/mL],MIC [5] [µg/mL],MIC [6] [µg/mL],MIC (Proteus mirabilis 1287) [µg/mL],MIC (Serratia marcescens T55) [µg/mL],MIC (Proteus vulgaris 6897) [µg/mL],MIC (Serratia marcescens T26) [µg/mL],MIC (Pseudomonas putida F264) [µg/mL],MIC (Escherichia coli Juhl; [8]) [µg/mL],Compound,other results
> 100,> 100,50,6.25,> 100,3.12,0.4,100,1.56,> 100,> 100,> 100,> 100,> 100,25,"C[C@H]1C=C(C(=O)O)N2C(=O)[C@@H](NC(=O)[C@H](N)c3ccccc3)[C@H]2C1 (relative stereo) [Example 30, trifluoroacetate of (±)-cis-7β-[(R)-2-phenyl-2-aminoacetamido]-4β-methyl-2-carboxy-1-azabicyclo[4,2,0]oct-2-en-8-one]",
> 100,> 100,12.5,3.12,100,6.25,0.78,> 100,6.25,50,25,50,> 100,100,12.5,"C[C@@H]1C=C(C(=O)O)N2C(=O)[C@@H](NC(=O)[C@H](N)c3ccccc3)[C@H]2C1 (relative stereo) [Example 32, (±)-cis-7β-[(R)-2-phenyl-2-aminoacetamido]-4α-methyl-2-carboxy-1-azabicyclo[4,2,0]oct-2-en-8-one]",
0.1,> 100,0.4,0.1,0.78,25,12.5,,25,0.2,,< 0.05,25,,0.78,"CO/N=C(/C(=O)N[C@@H]1C(=O)N2C(C(=O)O)=C[C@@H](C)C[C@H]12)c1csc(N)n1 (relative stereo) [Example 34, (±)-cis-7β[2-(2-amino-4-thiazolyl)-2-anti-methoxyiminoacetamido]-4α-methyl-2-carboxy-1-azabicyclo[4,2,0]oct-2-en-8-one]",
≤ 0.05,> 100,≤ 0.05,≤ 0.05,≤ 0.05,12.5,12.5,≤ 0.05,12.5,≤ 0.05,0.1,≤ 0.05,,≤ 0.05,≤ 0.05,"CO/N=C(\C(=O)N[C@@H]1C(=O)N2C(C(=O)O)=C[C@@H](C)C[C@H]12)c1csc(N)n1 (relative stereo) [Example 38, (±)-cis-7β-[2-(2-amino-4-thiazolyl)-2-syn-methoxyiminoacetamido]-4α-methyl-1-azabicyclo[4,2,0]oct-2-en-8-one-2-carboxylic acid]",
≤ 0.05,50,≤ 0.05,≤ 0.05,≤ 0.05,12.5,12.5,≤ 0.05,12.5,≤ 0.05,≤ 0.05,≤ 0.05,0.78,0.1,≤ 0.05,"CO/N=C(\C(=O)N[C@@H]1C(=O)N2C(C(=O)O)=CCC[C@H]12)c1csc(N)n1 (relative stereo) [Example 40, (±)-cis-7-[2-(2-amino-4-thiazolyl)-2-syn-methoxyiminoacetamido]-1-azabicyclo[4,2,0]oct-2-en-8-on-2-carboxylic acid]",
